Legend:
Assay type in all cases: in vivo
[1] = system: ptosis by reserpine in mice; assay: Depression, Reserpine test; details: Mus musculus, po
Experimental: Depression, Reserpine test
Mice were prepared according to the Model described by C.J.E. Niemegeers "Antagonism of Reserpine-like activity" in "Antidepressants", Ed. by S. Fielding, Futura Publishing Co., New York 1975. Pags 73-98 and Garattini S. et al. "Antagonists of Reserpine-induced eyelid ptosis" Med.Exp. 3 : 315-320 (1960):
The inhibition shown by the compound according to example 1 in ptosis by reserpine in mice was: […]

Mice = assay: Depression, Mice tail Suspension; details: Mus musculus, po
Experimental: Depression, Mice tail Suspension
Mice were prepared according to the Model described by
The inhibition shown by the compound according to example 1 was: […]

[2] = system: Unilateral ligature of the sciatic nerve; assay: Neuropathic pain, Bennet model, thermal response thresholds; details: rats with sciatic nerve ligature; dose-effect study; Figure 2
Text: Neuropathic Pain - Dose-effect study of Example 1 Phase I (Bennet model): Unilateral ligature of the sciatic nerve (thermal response thresholds)
According to the Model described by Bennet (Bennet and Xie, Pain 1988, 33, 87-107) a well established model for neuropathic pain, rats were operated with the following surgical procedure:
(§1) Rats were anaesthesized using Pentobarbital. Then the skin was incised. Following that a sciatic nerve ligature was placed and the incision was closed with silk thread.
(§2) In Sham-operated control animals the identical surgical procedures were followed, but the nerve was not ligatured.

[3] = system: Unilateral ligature of the sciatic nerve; assay: Neuropathic pain, Bennet model, mechanical response thresholds; details: rats with sciatic nerve ligature; dose-effect study; Figure 1
Text: Neuropathic Pain - Dose-effect study of Example 1 Phase I (Bennet model): Unilateral ligature of the sciatic nerve (mechanical response thresholds)
According to the Model described by Bennet (Bennet and Xie, Pain 1988, 33, 87-107) a well established model for neuropathic pain, rats were operated with the following surgical procedure,
as §1, §2

CN(C)CCOC(c1ccccc1)c1ccnn1C (racemic) [Example 1, (±)-5-{α-[2-(dimethylamino)ethoxy]benzyl}-1-methyl-1H-pirazole]
ED50 [1]: 26.2 mg/kg | inhibition at 10 mg/kg ([1]; dose 10 mg/kg p.o.): 21% | inhibition at 20 mg/kg ([1]; dose 20 mg/kg p.o.): 47% | inhibition at 40 mg/kg ([1]; dose 40 mg/kg p.o.): 75% | inhibition at 80 mg/kg ([1]; dose 80 mg/kg p.o.): 75% | inhibition at 160 mg/kg ([1]; dose 160 mg/kg p.o.): 71% | ED50 (Mice): 17 mg/kg | inhibition at 10 mg/kg (Mice; dose 10 mg/kg p.o.): 38% | inhibition at 20 mg/kg (Mice; dose 20 mg/kg p.o.): 54% | inhibition at 40 mg/kg (Mice; dose 40 mg/kg p.o.): 71% | inhibition at 80 mg/kg (Mice; dose 80 mg/kg p.o.): 70% | effect on struggle latency in a low temperature thermal response threshold [2]: clear dose-dependent effect | effect on vocalization threshold using a mechanical stimulus [3]: clear dose-dependent effect

— patent EP1695704A1, “Derivatives of aryl (or heteroaryl) azolylcarbinols for the treatment of fibromyalgia” (LABORATORIOS DEL DR. ESTEVE, S.A., priority 2005, dated 2006)
